Test results reported in article PMC12040169 (PLOS Biology, 2025).

Experiment: in vitro
Conditions: human, hela cells, % viability

Row | Structure (SMILES) | viability at 28.5 h, 10 µM [%]
1 | CCc1cc(C(=O)NC(Cn2ccnc2)C(C)(C)C)cc(=O)[nH]1 (stereo not shown) [CBK304410] | 101
2 | OCC(CNc1ncnc2nc[nH]c12)Cc1ccccn1 (stereo not shown) [CBK304412] | 83.4
3 | O=C(c1c[nH]c(=O)c(Cl)c1)N1CCCCC1CN1CCOCC1 (stereo not shown) [CBK304416] | 119
4 | CC(=O)c1ccc(C(=O)Nc2sc3c(c2C#N)CCN(C(C)=O)C3)cc1 [CBK304418] | 84.8
5 | Cc1nc(CC(=O)NC2CCCN(c3ccn(C)n3)C2=O)c(C)s1 (stereo not shown) [CBK304422] | 82.8
6 | Cc1nc(-c2ccc(NCCc3nc(C4CC4)cs3)nc2)[nH]c(=O)c1C [CBK304424] | 108
7 | Cc1csc(C(C)NC(=O)NC2CCCN(c3ccn(C)n3)C2=O)n1 (stereo not shown) [CBK304426] | 107
8 | Cc1ccc(C#N)cc1S(=O)(=O)NC(=O)COCC1CC1 [CBK304427] | 113
9 | CCOc1cc(NC2CCN(C(=O)C3(CCOC)CC3)CC2)ncn1 [CBK304434] | 98.2
10 | COc1ccc(CCNC(=O)Cn2ccc(C3CCCNC3)n2)cc1 (stereo not shown) [CBK304444] | 76.3
11 | COCc1nc2n(n1)CC(NC1CCCCc3ccccc31)CC2 (stereo not shown) [CBK304445] | 89.4
12 | Cc1cccc(N2CCOC3(CCCC3)C2)n1 [CBK304446] | 82.1
13 | Cc1noc(C)c1CN1CCC(c2ccccc2)C1 (stereo not shown) [CBK304451] | 109
14 | CC1CN(CCCCNCc2cn(C)nc2-c2cccnc2)CC(C)O1 (stereo not shown) [CBK304453] | 92.6
15 | CC(c1ccc(F)c(F)c1)N(C)C(=O)CN1CCCc2occc2C1 (stereo not shown) [CBK304456] | 82.9
16 | Cc1cc(C)cc(C(O)CNC2CCN(Cc3cscn3)CC2)c1 (stereo not shown) [CBK304457] | 94.4
17 | Cc1nc(-c2cc3c(s2)CCN(CC(O)COCc2ccco2)C3)cs1 (stereo not shown) [CBK304460] | 89.4
18 | Cc1nc(C2CN(c3ccnc4c(F)cccc34)CCO2)no1 (stereo not shown) [CBK304464] | 80.7
19 | COC(=O)CCN(Cc1nnc(C2CC2)o1)C(C)C [CBK304470] | 84.6
20 | Cc1c(C(=O)N2CCNCC2C)nnn1-c1ccc2ncccc2c1 (stereo not shown) [CBK304473] | 94.6
21 | Cc1csc2c(N3CCCC3CC(O)c3cnn(C)c3)ncnc12 (stereo not shown) [CBK304477] | 91.9
22 | COC(C)CN(C)C(=O)c1nnn(-c2ccc3ncccc3c2)c1C (stereo not shown) [CBK304484] | 85.8
23 | CCCn1c(C)nnc1CN(CC1CCCO1)C1CCC(C)CC1 (stereo not shown) [CBK304485] | 92

Row | Structure (SMILES) | viability at 28.5 h, 10 µM [%]
24 | COc1cccc(C2(C(=O)N3CCc4nc[nH]c(=O)c4C3)CC2)c1 [CBK304488] | 83.3
25 | O=C(C1CCCN1)N1CC2(CCCC2)c2c(F)cccc21 (stereo not shown) [CBK304489] | 90.1
26 | CN1CCCC1CNCc1cn(-c2ccccc2)nc1-c1cccnc1 (stereo not shown) [CBK304490] | 118
27 | O=C(O)C1CCCN(C(=O)Cc2csc(COc3ccc(Cl)cc3)n2)C1 (stereo not shown) [CBK304501] | 88.1
28 | Cc1ccc(CCC(=O)N(CC(=O)O)C2CCOCC2)c(C)c1 [CBK304509] | 91.6
29 | CN(C)C(CNCc1cn(C)nc1-c1cccnc1)c1ccccc1 (stereo not shown) [CBK304511] | 84.8
30 | CCOCC1CCN(C(=O)c2ncsc2Nc2cccnc2)C1 (stereo not shown) [CBK304514] | 110
31 | CN(C)C(=O)c1cccc(NC(=O)C2CCCCC2)c1 [CBK304515] | 89.7
32 | CCOC(=O)C1CSCCN1C(=O)c1ccc(-n2nc(C)cc2C)cc1 (stereo not shown) [CBK304517] | 86.4
33 | CN(CC1CCCCC1)C(=O)c1cc2ccsc2[nH]1 [CBK304518] | 91.4
34 | O=C(Cc1noc2ccccc12)Nc1ccc(N2CCCS2(=O)=O)cc1 [CBK304521] | 107
35 | CCOC(=O)N1CCN(C(=O)c2c(C)nn(C)c2Cl)CC1 [CBK304522] | 92.6
36 | CC(=O)Nc1ccc(CNC(=O)c2cc(C)n(CC(F)(F)F)c2C)cc1 [CBK304523] | 79.2
37 | Cc1cc(NCC2CCCO2)n2ncc(-c3ccccc3)c2n1 (stereo not shown) [CBK304530] | 83.8
38 | Cc1cc(NCC2CCCO2)n2nc(C)c(-c3ccccc3)c2n1 (stereo not shown) [CBK304531] | 90.5
39 | O=C(Cn1nnc2ccccc2c1=O)NCC(F)(F)F [CBK304533] | 94.1
40 | CCN1CCc2nc(NC(=O)Cc3cn4ccsc4n3)sc2C1 [CBK304534] | 90
41 | COC(=O)c1ccc2c(=O)n(CC3CCCO3)c(SC)nc2c1 (stereo not shown) [CBK304535] | 108
42 | Cc1nn(CCC#N)c(C)c1CCC(=O)NCc1cn2ccccc2n1 [CBK304540] | 88.1
43 | CC(=O)Nc1ccc(OCC(O)Cn2cnc3ncccc3c2=O)cc1 (stereo not shown) [CBK304541] | 86.4
44 | CC(=O)Nc1ccc(OCC(O)Cn2cnc3cc(C)c(C)cc32)cc1 (stereo not shown) [CBK304545] | 93.3
45 | N#Cc1ccc(NC(=O)NCC2(N3CCOCC3)CCSC2)cc1 (stereo not shown) [CBK304546] | 89.5
46 | Cc1nn(C)c(C)c1CC(=O)Nc1cccc(CN2CCCCC2)c1 [CBK304547] | 87.4

Row | Structure (SMILES) | viability at 28.5 h, 10 µM [%]
47 | CC(NC(=O)C1CC(=O)N(Cc2ccccn2)C1)c1ccc(F)cc1 (stereo not shown) [CBK304552] | 97.1
48 | CN(Cc1ccc(Br)cc1)C(=O)CNS(=O)(=O)c1cnn(C)c1 [CBK304553] | 82.5
49 | CC(CNC(=O)C1CCCC1)N1CCc2ccccc2C1 (stereo not shown) [CBK304555] | 94.2
50 | O=C(Cn1ccccc1=O)Nc1ccc(OCC(F)(F)F)nc1 [CBK304556] | 88.9
51 | CC(=O)Nc1cccc(CNC(=O)c2cccnc2OCC(F)(F)F)c1 [CBK304557] | 87.2
52 | CC(=O)Nc1ccc(CNC(=O)c2cccnc2O)cc1 [CBK304559] | 107
53 | O=C1CCC(C(=O)N2CCN(S(=O)(=O)c3ccccc3Cl)CC2)N1 (stereo not shown) [CBK304561] | 77.6
54 | Cc1ccc(C(=O)Nc2ncn(CC(=O)N3CCCCCC3)n2)cc1 [CBK304569] | 106
55 | Cc1sc2ncnc(N3CCCC3Cn3cccn3)c2c1C (stereo not shown) [CBK304570] | 90.9
56 | CN(C(=O)CN1CCCC1Cn1cccn1)C1(C#N)CCCCC1 (stereo not shown) [CBK304571] | 88.6
57 | CCOC(=O)c1c(NC(=O)c2cccnc2)sc2c1CCCC2 [CBK304574] | 101
58 | CCOC(=O)c1c(NC(=O)CNCc2cccnc2)sc2c1CCCC2 [CBK304577] | 94
59 | N#Cc1ccc(OCC(=O)Nc2ncccn2)cc1 [CBK304578] | 85.4
60 | Cc1cc(NC(=O)NC2CCOc3ccccc32)no1 (stereo not shown) [CBK304581] | 93.8
61 | Cc1ccccc1CN(C)C(C)C(=O)Nc1ccc(S(N)(=O)=O)cc1 (stereo not shown) [CBK304589] | 91.7
62 | CS(=O)(=O)NC1CCN(c2nc(C(F)(F)F)nc3ccsc23)CC1 [CBK304592] | 109
63 | CCS(=O)(=O)NC1CCN(c2nc(C(F)(F)F)nc3ccsc23)CC1 [CBK304593] | 108
64 | CS(=O)(=O)N1CCN(c2nc(C(F)(F)F)nc3ccsc23)CC1 [CBK304594] | 91.1
65 | Cc1ccccc1C(=O)N1CCN(Cc2cc(=O)n3ccsc3n2)CC1 [CBK304595] | 90.9
66 | Nc1nnc(SCCC(=O)N2CCN(c3ccc(F)cc3)CC2)s1 [CBK304597] | 84.7
67 | CC(=O)Nc1cccc(-n2nnnc2SCc2noc(C)n2)c1 [CBK304599] | 90.9
